Measured values from patent US20230365546A1, “5-SUBSTITUTED INDOLE 3-AMIDE DERIVATIVES, PREPARATION METHOD AND USE THEREOF” (ORIGIANT PHARMACEUTICAL CO., LTD, priority 2020, published 2023).

Key:
Assay in all cases: Kinase Profiler 10 μM panel
PKR(h) = PKR(h) (Homo sapiens (Human), UniProt P19525)
Method: (§1) In vitro kinase assays were conducted using Kinase Profiler services provided by Eurofins. The experimental method was as follows: the small molecule compound to be tested (0.001-10 μM), the protein kinase to be tested were incubated with a buffer containing substrate, 10 mM magnesium acetate, and [γ-^33P-ATP], the reaction was started by adding Mg\TPmix, after incubation for a period of time at room temperature, a 3% phosphate solution was added to the buffer to stop the reaction. Subsequently, 10 μL of the reaction mixture was quantitatively pipetted onto P30 filter paper, which was washed three times with 75 mM phosphate solution and then once with methanol. The P30 filter paper was air-dried and scintillation fluid was added for scintillation counting.

CDK14/cyclinY(h) = CDK14/cyclinY(h) (Homo sapiens (Human), UniProt O94921)
Method: as §1

NEK3(h) = NEK3(h) (Homo sapiens (Human), UniProt P51956)
Method: as §1

Ros(h) = Ros(h) (Homo sapiens (Human), UniProt P08922)
Method: as §1

CK1δ(h) = CK1δ(h) (Homo sapiens (Human), UniProt P48730)
Method: as §1

CaMKK1(h) = CaMKK1(h) (Homo sapiens (Human), UniProt Q8N5S9)
Method: as §1

NUAK2(h) = NUAK2(h) (Homo sapiens (Human), UniProt Q9H093)
Method: as §1

SAPK2a(h) = SAPK2a(h) (Homo sapiens (Human), UniProt Q16539)
Method: as §1

PI3 Kinase (p120g)(h) = PI3 Kinase (p120g)(h) (Homo sapiens (Human), UniProt P48736)
Method: as §1

EphA4(h) = EphA4(h) (Homo sapiens (Human), UniProt P54764)
Method: as §1

Met(Y1248H)(h) = Met(Y1248H)(h) (Homo sapiens (Human), UniProt P08581, Y1230H)
Method: as §1

ALK4(h) = ALK4(h) (Homo sapiens (Human), UniProt P36896)
Method: as §1

PAK2(h) = PAK2(h) (Homo sapiens (Human), UniProt Q13177)
Method: as §1

FGFR2(N549H)(h) = FGFR2(N549H)(h) (Homo sapiens (Human), UniProt P21802, N549H)
Method: as §1

PKD3(h) = PKD3(h) (Homo sapiens (Human), UniProt O94806)
Method: as §1

MAP4K3(h) = MAP4K3(h) (Homo sapiens (Human), UniProt Q8IVH8)
Method: as §1

Snk(h) = Snk(h) (Homo sapiens (Human), UniProt Q9NYY3)
Method: as §1

ULK3(h) = ULK3(h) (Homo sapiens (Human), UniProt Q6PHR2)
Method: as §1

VRK2(h) = VRK2(h) (Homo sapiens (Human), UniProt Q86Y07)
Method: as §1

IRAK4(h) = IRAK4(h) (Homo sapiens (Human), UniProt Q9NWZ3)
Method: as §1

SRPK2(h) = SRPK2(h) (Homo sapiens (Human), UniProt P78362)
Method: The experimental method was as follows: the small molecule compound to be tested (0.001-10 μM), the protein kinase to be tested were incubated with a buffer containing substrate, 10 mM magnesium acetate, and [γ-^33P-ATP], the reaction was started by adding Mg\TPmix, after incubation for a period of time at room temperature, a 3% phosphate solution was added to the buffer to stop the reaction. Subsequently, 10 μL of the reaction mixture was quantitatively pipetted onto P30 filter paper, which was washed three times with 75 mM phosphate solution and then once with methanol. The P30 filter paper was air-dried and scintillation fluid was added for scintillation counting.

TGFBR1(h) = TGFBR1(h) (Homo sapiens (Human), UniProt P36897)
Method: as §1

Tie2(R849W)(h) = Tie2(R849W)(h) (Homo sapiens (Human), UniProt Q02763, R849W)
Method: as §1

DRAK2(h) = DRAK2(h) (Homo sapiens (Human), UniProt O94768)
Method: as §1

EGFR(T790M)(h) = EGFR(T790M)(h) (Homo sapiens (Human), UniProt P00533, T790M)
Method: as §1

BTK(h) = BTK(h) (Homo sapiens (Human), UniProt Q06187)
Method: as §1

CLK1(h) = CLK1(h) (Homo sapiens (Human), UniProt P49759)
Method: as §1

SIK3(h) = SIK3(h) (Homo sapiens (Human), UniProt Q9Y2K2)
Method: as §1

LRRK2(h) = LRRK2(h) (Homo sapiens (Human), UniProt Q5S007)
Method: as §1

CSRC(h) = CSRC(h) (Homo sapiens (Human), UniProt P12931)
Method: as §1

MAPK1(h) = MAPK1(h) (Homo sapiens (Human), UniProt P27361)
Method: as §1

PKCθ(h) = PKCθ(h) (Homo sapiens (Human), UniProt Q04759)
Method: as §1

Ret (V804L)(h) = Ret (V804L)(h) (Homo sapiens (Human), UniProt P07949, V804L)
Method: as §1

Sequence of MAPK1(h) (P27361 whole entry): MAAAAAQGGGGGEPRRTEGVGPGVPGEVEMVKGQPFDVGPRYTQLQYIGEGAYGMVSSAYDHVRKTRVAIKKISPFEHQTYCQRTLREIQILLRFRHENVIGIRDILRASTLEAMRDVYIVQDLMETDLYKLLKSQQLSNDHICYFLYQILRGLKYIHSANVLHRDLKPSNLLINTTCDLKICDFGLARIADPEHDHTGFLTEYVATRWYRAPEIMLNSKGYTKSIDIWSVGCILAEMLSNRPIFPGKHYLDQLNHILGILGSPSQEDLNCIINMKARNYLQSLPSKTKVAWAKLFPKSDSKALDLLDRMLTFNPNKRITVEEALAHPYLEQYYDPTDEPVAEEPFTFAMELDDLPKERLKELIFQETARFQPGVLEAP
Sequence of Tie2(R849W)(h) (Q02763 23-1124 R849W): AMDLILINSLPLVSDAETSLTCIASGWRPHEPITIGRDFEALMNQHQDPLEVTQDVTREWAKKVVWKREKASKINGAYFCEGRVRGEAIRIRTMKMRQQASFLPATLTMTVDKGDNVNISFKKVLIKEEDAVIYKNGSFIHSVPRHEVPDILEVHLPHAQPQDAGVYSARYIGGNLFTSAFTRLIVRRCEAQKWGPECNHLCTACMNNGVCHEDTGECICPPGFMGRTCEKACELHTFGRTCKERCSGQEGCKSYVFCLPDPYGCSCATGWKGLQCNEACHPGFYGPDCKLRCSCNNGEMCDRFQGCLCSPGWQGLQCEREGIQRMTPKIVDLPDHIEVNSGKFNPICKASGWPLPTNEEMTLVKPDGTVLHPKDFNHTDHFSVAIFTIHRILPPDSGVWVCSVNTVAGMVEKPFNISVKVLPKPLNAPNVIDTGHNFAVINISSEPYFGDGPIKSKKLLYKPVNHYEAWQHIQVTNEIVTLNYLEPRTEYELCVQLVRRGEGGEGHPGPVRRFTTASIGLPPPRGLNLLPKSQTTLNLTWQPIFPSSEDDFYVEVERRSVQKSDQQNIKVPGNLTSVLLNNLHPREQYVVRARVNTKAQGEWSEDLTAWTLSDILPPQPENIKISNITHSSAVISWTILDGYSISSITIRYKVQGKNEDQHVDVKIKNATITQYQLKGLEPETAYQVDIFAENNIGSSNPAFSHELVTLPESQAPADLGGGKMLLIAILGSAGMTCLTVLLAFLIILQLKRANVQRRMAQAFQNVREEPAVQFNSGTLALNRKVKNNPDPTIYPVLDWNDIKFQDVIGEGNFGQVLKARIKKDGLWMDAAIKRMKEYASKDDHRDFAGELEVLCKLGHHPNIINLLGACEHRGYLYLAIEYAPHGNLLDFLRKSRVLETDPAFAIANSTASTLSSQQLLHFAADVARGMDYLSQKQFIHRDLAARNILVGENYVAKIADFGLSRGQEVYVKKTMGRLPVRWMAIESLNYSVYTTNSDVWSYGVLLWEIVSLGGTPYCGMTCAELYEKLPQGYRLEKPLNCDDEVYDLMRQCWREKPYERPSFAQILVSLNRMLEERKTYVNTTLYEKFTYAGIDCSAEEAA
Sequence of NEK3(h) (P51956 whole entry): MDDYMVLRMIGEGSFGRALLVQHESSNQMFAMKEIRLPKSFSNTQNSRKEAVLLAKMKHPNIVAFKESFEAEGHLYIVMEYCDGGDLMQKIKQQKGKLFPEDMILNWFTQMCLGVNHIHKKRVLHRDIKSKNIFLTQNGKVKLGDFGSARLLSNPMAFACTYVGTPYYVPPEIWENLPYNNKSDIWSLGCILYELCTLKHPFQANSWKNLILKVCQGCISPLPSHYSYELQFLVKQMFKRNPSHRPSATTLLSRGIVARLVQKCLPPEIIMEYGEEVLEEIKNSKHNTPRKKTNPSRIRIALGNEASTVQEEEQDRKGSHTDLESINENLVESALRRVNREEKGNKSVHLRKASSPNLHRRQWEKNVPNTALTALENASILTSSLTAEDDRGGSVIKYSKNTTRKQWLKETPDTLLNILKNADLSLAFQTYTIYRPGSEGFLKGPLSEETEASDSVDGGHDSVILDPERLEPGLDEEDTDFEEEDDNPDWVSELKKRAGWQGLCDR
Sequence of FGFR2(N549H)(h) (P21802 22-821 N549H): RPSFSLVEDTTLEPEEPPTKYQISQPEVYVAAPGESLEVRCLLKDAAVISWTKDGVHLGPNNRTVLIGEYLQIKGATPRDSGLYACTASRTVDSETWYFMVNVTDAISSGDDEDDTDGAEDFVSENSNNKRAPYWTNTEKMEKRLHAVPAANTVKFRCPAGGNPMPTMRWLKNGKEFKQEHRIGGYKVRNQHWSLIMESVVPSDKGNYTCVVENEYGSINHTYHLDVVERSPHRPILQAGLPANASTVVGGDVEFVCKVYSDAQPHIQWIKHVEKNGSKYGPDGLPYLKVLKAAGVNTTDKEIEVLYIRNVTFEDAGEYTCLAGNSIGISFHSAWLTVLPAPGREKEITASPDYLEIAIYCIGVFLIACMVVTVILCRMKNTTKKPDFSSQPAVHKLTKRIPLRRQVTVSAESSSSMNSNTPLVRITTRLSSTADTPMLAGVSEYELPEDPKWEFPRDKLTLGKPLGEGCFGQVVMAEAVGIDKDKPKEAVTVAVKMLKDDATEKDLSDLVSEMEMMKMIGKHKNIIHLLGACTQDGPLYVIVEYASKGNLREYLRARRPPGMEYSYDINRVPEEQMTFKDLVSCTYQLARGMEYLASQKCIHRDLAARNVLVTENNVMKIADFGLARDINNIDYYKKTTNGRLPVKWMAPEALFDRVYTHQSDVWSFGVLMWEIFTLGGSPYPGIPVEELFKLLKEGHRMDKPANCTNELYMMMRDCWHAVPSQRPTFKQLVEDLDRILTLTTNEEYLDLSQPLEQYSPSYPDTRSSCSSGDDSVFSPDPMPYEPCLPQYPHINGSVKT
Sequence of Snk(h) (Q9NYY3 whole entry): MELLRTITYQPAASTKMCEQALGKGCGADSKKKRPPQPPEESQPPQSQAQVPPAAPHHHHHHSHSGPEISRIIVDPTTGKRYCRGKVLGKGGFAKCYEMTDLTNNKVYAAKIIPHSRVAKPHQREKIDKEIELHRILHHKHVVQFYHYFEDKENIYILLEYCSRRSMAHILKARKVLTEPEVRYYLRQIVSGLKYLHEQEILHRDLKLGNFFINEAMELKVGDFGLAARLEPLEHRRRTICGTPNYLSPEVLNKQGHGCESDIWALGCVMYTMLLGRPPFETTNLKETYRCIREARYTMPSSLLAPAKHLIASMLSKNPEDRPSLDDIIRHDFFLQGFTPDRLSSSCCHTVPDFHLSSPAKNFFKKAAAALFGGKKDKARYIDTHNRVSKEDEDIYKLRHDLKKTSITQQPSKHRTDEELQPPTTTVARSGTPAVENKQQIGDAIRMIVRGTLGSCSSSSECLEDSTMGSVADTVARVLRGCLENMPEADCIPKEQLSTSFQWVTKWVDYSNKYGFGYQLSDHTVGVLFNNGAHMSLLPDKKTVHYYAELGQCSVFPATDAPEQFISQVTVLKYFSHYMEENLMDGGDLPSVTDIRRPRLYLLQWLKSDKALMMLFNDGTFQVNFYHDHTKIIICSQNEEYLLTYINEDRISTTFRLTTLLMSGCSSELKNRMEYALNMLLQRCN
Sequence of PAK2(h) (Q13177 whole entry): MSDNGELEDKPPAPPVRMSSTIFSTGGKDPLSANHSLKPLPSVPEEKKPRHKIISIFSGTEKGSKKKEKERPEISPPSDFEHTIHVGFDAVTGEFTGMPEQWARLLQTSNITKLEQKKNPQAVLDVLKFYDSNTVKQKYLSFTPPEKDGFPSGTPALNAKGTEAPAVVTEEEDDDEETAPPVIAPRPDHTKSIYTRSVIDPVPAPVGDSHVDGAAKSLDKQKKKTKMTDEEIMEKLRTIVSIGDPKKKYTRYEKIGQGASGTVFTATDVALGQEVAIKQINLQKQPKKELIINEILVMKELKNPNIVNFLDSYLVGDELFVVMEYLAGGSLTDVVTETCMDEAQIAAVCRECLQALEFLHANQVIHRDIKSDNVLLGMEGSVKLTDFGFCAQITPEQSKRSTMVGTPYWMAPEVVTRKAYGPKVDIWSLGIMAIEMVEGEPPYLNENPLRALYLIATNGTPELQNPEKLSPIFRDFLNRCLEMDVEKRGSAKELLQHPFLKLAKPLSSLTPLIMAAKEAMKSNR
Sequence of VRK2(h) (Q86Y07 whole entry): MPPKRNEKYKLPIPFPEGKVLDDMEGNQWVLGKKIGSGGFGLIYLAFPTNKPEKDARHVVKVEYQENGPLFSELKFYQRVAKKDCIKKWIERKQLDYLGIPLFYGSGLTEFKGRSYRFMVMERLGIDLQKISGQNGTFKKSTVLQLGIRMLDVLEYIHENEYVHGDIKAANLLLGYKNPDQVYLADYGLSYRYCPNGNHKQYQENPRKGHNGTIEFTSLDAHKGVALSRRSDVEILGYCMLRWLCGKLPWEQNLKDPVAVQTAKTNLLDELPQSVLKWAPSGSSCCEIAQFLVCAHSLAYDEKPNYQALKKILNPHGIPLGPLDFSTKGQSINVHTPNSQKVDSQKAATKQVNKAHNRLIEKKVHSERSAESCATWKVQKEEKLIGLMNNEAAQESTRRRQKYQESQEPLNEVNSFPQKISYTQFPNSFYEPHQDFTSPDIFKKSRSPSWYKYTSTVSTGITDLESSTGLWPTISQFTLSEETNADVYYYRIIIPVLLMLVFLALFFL
Sequence of CSRC(h) (P12931 whole entry, looked up): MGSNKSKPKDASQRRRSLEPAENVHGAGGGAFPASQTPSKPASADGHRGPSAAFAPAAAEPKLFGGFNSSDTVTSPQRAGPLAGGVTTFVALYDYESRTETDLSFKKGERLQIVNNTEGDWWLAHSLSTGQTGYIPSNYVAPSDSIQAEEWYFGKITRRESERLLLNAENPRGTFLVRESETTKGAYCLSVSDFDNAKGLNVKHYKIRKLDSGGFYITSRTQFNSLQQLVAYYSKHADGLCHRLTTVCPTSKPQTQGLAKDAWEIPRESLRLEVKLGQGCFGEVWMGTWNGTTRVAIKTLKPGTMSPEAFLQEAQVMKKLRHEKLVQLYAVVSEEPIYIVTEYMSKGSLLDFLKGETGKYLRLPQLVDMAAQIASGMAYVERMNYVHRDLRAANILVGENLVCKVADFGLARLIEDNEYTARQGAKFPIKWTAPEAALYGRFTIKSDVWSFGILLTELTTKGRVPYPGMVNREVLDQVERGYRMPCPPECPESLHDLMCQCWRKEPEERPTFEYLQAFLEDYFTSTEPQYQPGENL

Q: For `C[C@H](NC(=O)c1c[nH]c2ccc(-c3ccc4nc(NC(=O)C5CC5)sc4c3)cc12)c1cccc(F)c1` [Compound 34, (S)-5-(2-(cyclopropanecarboxamido)benzo[d]thiazol-6-yl)-N-(1-(3-fluorophenyl)ethyl)-1H-indole-3-carboxamide], which Inhibition ratio (PKR(h)) is on record?
A: Its Inhibition ratio is 11%.

Q: What about the Inhibition ratio (CDK14/cyclinY(h)) of the same compound?
A: The Inhibition ratio was 47%.

Q: And the Inhibition ratio (NEK3(h))?
A: Its Inhibition ratio is 10%.

Q: And the Inhibition ratio (Ros(h))?
A: Its Inhibition ratio is 31%.

Q: And the Inhibition ratio (CK1δ(h))?
A: The Inhibition ratio was 33%.

Q: What about the Inhibition ratio (CaMKK1(h)) of the same compound?
A: The Inhibition ratio was 74%.

Q: What about the Inhibition ratio (NUAK2(h)) of the same compound?
A: The Inhibition ratio was 9%.

Q: What about the Inhibition ratio (SAPK2a(h)) of the same compound?
A: The Inhibition ratio was 29%.

Q: And the Inhibition ratio (PI3 Kinase (p120g)(h))?
A: Its Inhibition ratio is 35%.

Q: And the Inhibition ratio (EphA4(h))?
A: The Inhibition ratio was 14%.

Q: What about the Inhibition ratio (Met(Y1248H)(h)) of the same compound?
A: Its Inhibition ratio is 107%.

Q: What about the Inhibition ratio (ALK4(h)) of the same compound?
A: The Inhibition ratio was 3%.

Q: What about the Inhibition ratio (PAK2(h)) of the same compound?
A: The Inhibition ratio was 19%.

Q: And the Inhibition ratio (FGFR2(N549H)(h))?
A: The Inhibition ratio was 86%.

Q: And the Inhibition ratio (PKD3(h))?
A: The Inhibition ratio was −5%.

Q: What about the Inhibition ratio (MAP4K3(h)) of the same compound?
A: The Inhibition ratio was 95%.

Q: And the Inhibition ratio (Snk(h))?
A: Its Inhibition ratio is 0%.

Q: And the Inhibition ratio (ULK3(h))?
A: Its Inhibition ratio is 30%.

Q: And the Inhibition ratio (VRK2(h))?
A: Its Inhibition ratio is 21%.

Q: And the Inhibition ratio (IRAK4(h))?
A: Its Inhibition ratio is 15%.

Q: What about the Inhibition ratio (SRPK2(h)) of the same compound?
A: Its Inhibition ratio is 17%.

Q: And the Inhibition ratio (TGFBR1(h))?
A: Its Inhibition ratio is 7%.

Q: And the Inhibition ratio (Tie2(R849W)(h))?
A: Its Inhibition ratio is 86%.

Q: And the Inhibition ratio (DRAK2(h))?
A: Its Inhibition ratio is 18%.

Q: What about the Inhibition ratio (EGFR(T790M)(h)) of the same compound?
A: The Inhibition ratio was 40%.

Q: And the Inhibition ratio (BTK(h))?
A: The Inhibition ratio was 15%.

Q: What about the Inhibition ratio (CLK1(h)) of the same compound?
A: The Inhibition ratio was 80%.

Q: What about the Inhibition ratio (SIK3(h)) of the same compound?
A: The Inhibition ratio was 23%.

Q: And the Inhibition ratio (LRRK2(h))?
A: The Inhibition ratio was 30%.

Q: What about the Inhibition ratio (CSRC(h)) of the same compound?
A: The Inhibition ratio was 43%.

Q: And the Inhibition ratio (MAPK1(h))?
A: Its Inhibition ratio is 25%.

Q: What about the Inhibition ratio (PKCθ(h)) of the same compound?
A: Its Inhibition ratio is −24%.

Q: And the Inhibition ratio (Ret (V804L)(h))?
A: Its Inhibition ratio is 99%.

Q: Which Inhibition ratio/% (PKR(h)) does the source give for `C[C@H](NC(=O)c1cn(C)c2ccc(-c3ccn4nc(NC(=O)C5CC5)nc4c3)cc12)c1cccc(F)c1` [Compound 94, (S)-5-(2-(cyclopropanecarboxamido)-[1,2,4]triazolo[1,5-a]pyridin-7-yl)-N-(1-(3-fluorophenyl)ethyl)-1-methyl-1H-indole-3-carboxamide] here?
A: Its Inhibition ratio/% is 19%.

Q: What about the Inhibition ratio/% (CDK14/cyclinY(h)) of the same compound?
A: The Inhibition ratio/% was 55%.

Q: And the Inhibition ratio/% (NEK3(h))?
A: The Inhibition ratio/% was 14%.

Q: And the Inhibition ratio/% (Ros(h))?
A: Its Inhibition ratio/% is −18%.

Q: What about the Inhibition ratio/% (CK1δ(h)) of the same compound?
A: The Inhibition ratio/% was −12%.

Q: What about the Inhibition ratio/% (CaMKK1(h)) of the same compound?
A: The Inhibition ratio/% was 35%.

Q: And the Inhibition ratio/% (NUAK2(h))?
A: The Inhibition ratio/% was 30%.

Q: What about the Inhibition ratio/% (SAPK2a(h)) of the same compound?
A: The Inhibition ratio/% was 17%.

Q: And the Inhibition ratio/% (PI3 Kinase (p120g)(h))?
A: Its Inhibition ratio/% is −12%.

Q: What about the Inhibition ratio/% (EphA4(h)) of the same compound?
A: Its Inhibition ratio/% is 11%.

Q: And the Inhibition ratio/% (Met(Y1248H)(h))?
A: The Inhibition ratio/% was −11%.

Q: And the Inhibition ratio/% (ALK4(h))?
A: The Inhibition ratio/% was −18%.

Q: What about the Inhibition ratio/% (PAK2(h)) of the same compound?
A: Its Inhibition ratio/% is −14%.

Q: What about the Inhibition ratio/% (FGFR2(N549H)(h)) of the same compound?
A: Its Inhibition ratio/% is 12%.

Q: What about the Inhibition ratio/% (PKD3(h)) of the same compound?
A: Its Inhibition ratio/% is −13%.

Q: And the Inhibition ratio/% (MAP4K3(h))?
A: The Inhibition ratio/% was 28%.

Q: What about the Inhibition ratio/% (Snk(h)) of the same compound?
A: Its Inhibition ratio/% is 1%.

Q: What about the Inhibition ratio/% (ULK3(h)) of the same compound?
A: The Inhibition ratio/% was 3%.

Q: What about the Inhibition ratio/% (VRK2(h)) of the same compound?
A: The Inhibition ratio/% was −18%.

Q: What about the Inhibition ratio/% (IRAK4(h)) of the same compound?
A: The Inhibition ratio/% was −11%.

Q: And the Inhibition ratio/% (SRPK2(h))?
A: Its Inhibition ratio/% is −16%.

Q: What about the Inhibition ratio/% (TGFBR1(h)) of the same compound?
A: The Inhibition ratio/% was −3%.

Q: And the Inhibition ratio/% (Tie2(R849W)(h))?
A: Its Inhibition ratio/% is 16%.

Q: And the Inhibition ratio/% (DRAK2(h))?
A: Its Inhibition ratio/% is 37%.

Q: And the Inhibition ratio/% (EGFR(T790M)(h))?
A: The Inhibition ratio/% was −10%.

Q: And the Inhibition ratio/% (BTK(h))?
A: The Inhibition ratio/% was 65%.

Q: And the Inhibition ratio/% (CLK1(h))?
A: Its Inhibition ratio/% is 80%.

Q: And the Inhibition ratio/% (SIK3(h))?
A: The Inhibition ratio/% was 47%.

Q: And the Inhibition ratio/% (LRRK2(h))?
A: Its Inhibition ratio/% is 10%.

Q: What about the Inhibition ratio/% (CSRC(h)) of the same compound?
A: Its Inhibition ratio/% is −17%.

Q: And the Inhibition ratio/% (MAPK1(h))?
A: Its Inhibition ratio/% is 33%.

Q: What about the Inhibition ratio/% (PKCθ(h)) of the same compound?
A: Its Inhibition ratio/% is 7%.

Q: And the Inhibition ratio/% (Ret (V804L)(h))?
A: The Inhibition ratio/% was 50%.
